Results on 54 compounds are retold here after patent US20250042889A1, “3CLPRO PROTEASE INHIBITOR” (SHANGHAI QILU PHARMACEUTICAL RESEARCH AND DEVELOPMENT …, priority 2021, published 2025).

The experiment deals with SARS-COV-2 3CLpro/Mpro protease (Severe acute respiratory syndrome coronavirus 2 (2019-nCoV) (SARS-CoV-2), UniProt P0DTD1). As to the kind of experiment: Inhibitory effect on SARS-COV-2 3CLpro/Mpro protease by fluorescence resonance energy transfer. Format: biochemical. The following applies: activity intervals A-D, read-out: IC50 (nM), Inhibition on SARS-CoV-2 3CLpro/Mpro protease.

As to `Cc1cc(C(=O)N2CC(Nc3c(C(=O)N4CCCCC4)cc(Br)cc3[N+](=O)[O-])C(F)(F)C2)cc(=O)[nH]1` (stereo not drawn) [Example 101], the IC50 is 50 to 100 nM. With `CC1(Nc2c(C(=O)N3CCCCC3)cc(Br)cc2[N+](=O)[O-])CCCN(C(=O)c2cncc3ccccc23)C1` (stereo not drawn) [Example 102] the figure was 10 to 50 nM; with `O=C(c1cc(Br)cc([N+](=O)[O-])c1N[C@@H]1CCCN(C(=O)c2cncc3cc(F)ccc23)C1)N1CCCCC1` [Example 103], 10 to 50 nM. With `O=C(c1cncc(Br)c1)N1CC(Nc2c(C(=O)N3CCC(F)(F)CC3)cc(Br)cc2[N+](=O)[O-])C(F)(F)C1` (stereo not drawn) [Example 104] the figure was 10 to 50 nM; with `O=C(c1cc(Br)c[n+]([O-])c1)N1CCC[C@@H](Nc2c(C(=O)N3CCC(F)(F)CC3)cc(Br)cc2[N+](=O)[O-])C1` [Example 105], 50 to 100 nM. Take `O=C(c1cc(Br)cnc1F)N1CCC[C@@H](Nc2c(C(=O)N3CCC(F)(F)CC3)cc(Br)cc2[N+](=O)[O-])C1` [Example 106]: the IC50 was in the range of 10 to 50 nM. With `O=C(N[C@H]1CCCC[C@H]1Nc1c(C(=O)N2CCOCC2)cc(Br)cc1[N+](=O)[O-])c1cc(=O)[nH]c2ccccc12` [Example 107] the figure was 10 to 50 nM; with `Cc1cc(C(=O)N2CCC[C@@H](Nc3c(C(=O)N4CCC(F)(F)CC4)cc(Br)cc3[N+](=O)[O-])C2)cc(=O)[nH]1` [Example 108], 10 to 50 nM.

Consider `O=C(N[C@H]1CCCC[C@H]1Nc1c(C(=O)N2CCC(N3CCOCC3)CC2)cc(Br)cc1C(F)(F)F)c1cncc2cc(Cl)ccc12` [Example 109], for which the IC50 was 10 to 50 nM.

As for `COCCN1CCN(C(=O)c2cc(Br)cc([N+](=O)[O-])c2N[C@@H]2CCCC[C@@H]2NC(=O)c2cncc3cc(Cl)ccc23)CC1` [Example 111], the IC50 was less than 10 nM. Regarding `C[C@@H]1CN(C(=O)c2cc(Br)cc(C(F)(F)F)c2N[C@@H]2CCCC[C@@H]2NC(=O)c2cncc3cc(Cl)ccc23)C[C@H](C)O1` [Example 112], the IC50 is 10 to 50 nM. In the case of `C[C@@H]1CN(C(=O)c2cc(Br)cc([N+](=O)[O-])c2N[C@@H]2CCCC[C@@H]2NC(=O)c2cncc3cc(Cl)ccc23)C[C@H](C)O1` [Example 113], the IC50 was less than 10 nM. With `Nc1cncc(C(=O)N2CCC[C@@H](Nc3c(C(=O)N4CCOCC4)cc(Br)cc3[N+](=O)[O-])C2)c1` [Example 114] the figure was 10 to 50 nM; with `C[C@@H]1CN(C(=O)c2cc(Br)cc([N+](=O)[O-])c2N[C@@H]2CCCN(C(=O)c3cncc(I)c3)C2)C[C@H](C)N1` [Example 115], 10 to 50 nM.

Take `O=C(c1cc(Br)cc([N+](=O)[O-])c1N[C@@H]1CCCN(C(=O)c2cc(=O)[nH]c3ccccc23)C1)N1CCCCC1` [Example 116]: the IC50 is less than 10 nM. With `O=C(c1cc(Br)cc([N+](=O)[O-])c1N[C@@H]1CCCN(C(=O)c2cc(=O)[nH]c3cc(Cl)ccc23)C1)N1CCOCC1` [Example 117] the figure was 10 to 50 nM; with `O=C(N[C@H]1CCCC[C@H]1Nc1c(C(=O)N2CCN(CCO)CC2)cc(Br)cc1[N+](=O)[O-])c1cncc2cc(Cl)ccc12` [Example 118], 10 to 50 nM.

For the compound `O=C(c1cc(Br)cc([N+](=O)[O-])c1N[C@@H]1CCCN(C(=O)c2cc(=O)[nH]c3ccccc23)C1)N1CCOCC1` [Example 119], the IC50 is 10 to 50 nM. Take `COCCN1CCN(C(=O)c2cc(Br)cc([N+](=O)[O-])c2N[C@@H]2CCCN(C(=O)c3cncc(I)c3)C2)CC1` [Example 120]: the IC50 is less than 10 nM.

In the case of `C[C@@H]1CN(C(=O)c2cc(Br)cc([N+](=O)[O-])c2N[C@@H]2CCCC[C@@H]2NC(=O)c2cc(=O)[nH]c3ccccc23)C[C@H](C)O1` [Example 121], the IC50 was less than 10 nM. With `O=C(N[C@H]1CCCC[C@H]1Nc1c(C(=O)N2C[C@@H](O)CO2)cc(Br)cc1[N+](=O)[O-])c1cncc2cc(Cl)ccc12` [Example 122] the figure was 10 to 50 nM; with `CN1CCN(C(=O)c2cc(Br)cc([N+](=O)[O-])c2N[C@@H]2CCCC[C@@H]2NC(=O)c2cncc3cc(Cl)ccc23)CC1` [Example 123], less than 10 nM. Regarding `O=C(N[C@H]1CCCC[C@H]1Nc1c(C(=O)N2CC3(CCOCC3)C2)cc(Br)cc1[N+](=O)[O-])c1cncc2cc(Cl)ccc12` [Example 124], the IC50 was 10 to 50 nM. With `C[C@@H]1CN(C(=O)c2cc(Br)cc([N+](=O)[O-])c2N[C@@H]2CCN(C(=O)c3cncc4cc(Cl)ccc34)C2)C[C@H](C)N1` [Example 125] the figure was less than 10 nM. With `O=C(N[C@H]1CCCC[C@H]1Nc1c(C(=O)N2CC[C@@H](O)C2)cc(Br)cc1C(F)(F)F)c1cncc2cc(Cl)ccc12` [Example 126] the figure was 10 to 50 nM; with `O=C(c1cc(Br)cc([N+](=O)[O-])c1N[C@@H]1CCCN(C(=O)c2cc(=O)[nH]c3cc(Cl)ccc23)C1)N1CCCCC1` [Example 128], 10 to 50 nM; with `C[C@@H]1CN(C(=O)c2cc(Br)cc([N+](=O)[O-])c2N[C@@H]2CCCN(C(=O)c3cc(=O)[nH]c4cc(Cl)ccc34)C2)C[C@H](C)O1` [Example 129], 10 to 50 nM. Regarding `C[C@H]1CN(C(=O)c2cc(Br)cc([N+](=O)[O-])c2N[C@@H]2CCCN(C(=O)c3cc(=O)[nH]c4ccccc34)C2)CCO1` [Example 130], the IC50 was 10 to 50 nM. With `C[C@@H]1CN(C(=O)c2cc(Br)cc([N+](=O)[O-])c2N[C@@H]2CCCC[C@@H]2NC(=O)c2cncc3cc(Cl)ccc23)C[C@H](C)N1` [Example 131] the figure was 10 to 50 nM; with `O=C(N[C@H]1CCCC[C@H]1Nc1c(C(=O)N2CCC3(CC2)COC3)cc(Br)cc1[N+](=O)[O-])c1cncc2cc(Cl)ccc12` [Example 132], 10 to 50 nM; with `C[C@@H]1CN(C(=O)c2cc(Br)cc([N+](=O)[O-])c2N[C@@H]2CCCN(C(=O)c3cc(=O)[nH]c4ccccc34)C2)C[C@H](C)O1` [Example 133], 10 to 50 nM.

Consider `O=C(c1cc(Br)cc([N+](=O)[O-])c1N[C@@H]1CCCN(C(=O)c2cc(=O)[nH]c3ccccc23)C1)N1CCC(N2CCOCC2)CC1` [Example 134], for which the IC50 lay within 10 to 50 nM. With `C[C@@H]1CN(C(=O)c2cc(Br)cc([N+](=O)[O-])c2N[C@@H]2CCCN(C(=O)c3cncc4cc(Cl)ccc34)C2)C[C@H](C)N1` [Example 135] the figure was 10 to 50 nM; with `O=C(N[C@H]1CCCC[C@H]1Nc1c(C(=O)N2CCC(N3CCOCC3)CC2)cc(Br)cc1[N+](=O)[O-])c1cc(=O)[nH]c2ccccc12` [Example 136], less than 10 nM; with `O=C(NN1CCOCC1)c1cc(Br)cc([N+](=O)[O-])c1N[C@@H]1CCCN(C(=O)c2cncc(I)c2)C1` [Example 137], 10 to 50 nM. With `O=C(c1cc(Br)cc([N+](=O)[O-])c1N[C@@H]1CCCN(C(=O)c2cc(=O)[nH]c3ccccc23)C1)N1CCN(CC(F)(F)F)CC1` [Example 138], the IC50 lay within 10 to 50 nM. With `C[C@@H]1CN(C(=O)c2cc(Br)cc([N+](=O)[O-])c2N[C@@H]2CCCN(C(=O)c3cc(=O)[nH]c4ccccc34)C2)C[C@H](C)N1` [Example 139] the figure was 10 to 50 nM. With `C[C@@H]1CN(C(=O)c2cc(Br)cc([N+](=O)[O-])c2N[C@@H]2CCCN(C(=O)c3cc(=O)[nH]c4ccccc34)C2)CCO1` [Example 140] the figure was 10 to 50 nM. As for `N[C@@H]1C[C@H](O)CN(C(=O)c2cc(Br)cc([N+](=O)[O-])c2N[C@@H]2CCCC[C@@H]2NC(=O)c2cncc3ccccc23)C1` [Example 141], the IC50 was in the range of 10 to 50 nM. With `O=C(c1cc(Br)cc([N+](=O)[O-])c1N[C@@H]1CCCN(C(=O)C2CNCc3ccccc32)C1)N1CCOCC1` (stereo partly drawn) [Example 142] the figure was 10 to 50 nM. As to `O=C(N[C@H]1CCCC[C@H]1Nc1c(C(=O)N2CCNCC2)cc(Br)cc1C(F)(F)F)c1cncc2cc(Cl)ccc12` [Example 143], the IC50 was in the range of 10 to 50 nM. `C[C@@H]1CN(C(=O)c2cc(Br)cc([N+](=O)[O-])c2N[C@@H]2CCCN(C(=O)c3cncc4[nH]ncc34)C2)C[C@H](C)O1` [Example 144]: the IC50 is 10 to 50 nM.

Take `C[C@@H]1CN(C(=O)c2cc(Br)cc([N+](=O)[O-])c2N[C@@H]2CCCN(C(=O)C3CCCOC3)C2)C[C@H](C)O1` (stereo partly drawn) [Example 145]: the IC50 was in the range of 10 to 50 nM. With `Cc1cc(C(=O)N2CCC[C@@H](Nc3c(C(=O)N4CCN(CC(F)(F)F)CC4)cc(Br)cc3[N+](=O)[O-])C2)cc(=O)[nH]1` [Example 146] the figure was 10 to 50 nM. Take `O=C(N[C@H]1CCCC[C@H]1Nc1c(C(=O)N2CCC(O)CC2)cc(Br)cc1C(F)(F)F)c1cncc2cc(Cl)ccc12` [Example 147]: the IC50 was in the range of 10 to 50 nM. Consider `Cc1cc(C(=O)N2CCC[C@@H](Nc3c(C(=O)N4CC5CC5C4)cc(Br)cc3[N+](=O)[O-])C2)cc(=O)[nH]1` (stereo partly drawn) [Example 148], for which the IC50 was 50 to 100 nM. With `Cc1cc(C(=O)N2CCC[C@@H](Nc3c(C(=O)N4CCCCC4)cc(Br)cc3[N+](=O)[O-])C2)cc(=O)[nH]1` [Example 149] the figure was 10 to 50 nM; with `O=C(c1cc(Br)[nH]c(=O)c1)N1CCC[C@@H](Nc2c(C(=O)N3CCC(F)(F)CC3)cc(Br)cc2[N+](=O)[O-])C1` [Example 150], 50 to 100 nM; with `C[C@@H]1CN(C(=O)c2cc(Br)cc([N+](=O)[O-])c2N[C@@H]2CCCN(C(=O)c3cncc4[nH]cnc34)C2)C[C@H](C)O1` [Example 151], 10 to 50 nM. With `C[C@@H]1CN(C(=O)c2cc(Br)cc([N+](=O)[O-])c2N[C@@H]2CCOC[C@@H]2NC(=O)c2cncc3ccccc23)C[C@H](C)O1` [Example 152] the figure was 10 to 50 nM.

As to `CNc1cncc(C(=O)N2C[C@H](Nc3c(C(=O)N4CCN(CCOC)CC4)cc(Br)cc3[N+](=O)[O-])C3(CC3)C2)c1` [Example 153], the IC50 was 10 to 50 nM. With `Cc1cc(C(=O)N2CC(Nc3c(C(=O)N4CCC5(CCC5)CC4)cc(Br)cc3[N+](=O)[O-])C(F)(F)C2)cc(=O)[nH]1` (stereo not drawn) [Example 154] the figure was 50 to 100 nM; with `Cc1cc(C(=O)N2CC(Nc3c(C(=O)N4CCC(C)(C)CC4)cc(Br)cc3[N+](=O)[O-])C(F)(F)C2)cc(=O)[nH]1` (stereo not drawn) [Example 155], 50 to 100 nM; with `Cc1cc(C(=O)N2CC(Nc3c(C(=O)N4CCC5(CCCC5)CC4)cc(Br)cc3[N+](=O)[O-])C(F)(F)C2)cc(=O)[nH]1` (stereo not drawn) [Example 156], 10 to 50 nM.
